This note sets out measurements from PMC5374409, “D11-Mediated Inhibition of Protein Kinase CK2 Impairs HIF-1α-Mediated Signaling in Human Glioblastoma Cells” (Pharmaceuticals, 2017).

The target of the assay is T1, protein kinase CK2 (CK2α) (Homo sapiens, UniProt P68400).
T1 construct: gene CSNK2A1
The experiment in a line: radioactive kinase assay with recombinant CK2 and synthetic peptide, varied ATP, Michaelis-Menten re-plots. Type of assay: biochemical.

T1 sequence (P68400 1-335): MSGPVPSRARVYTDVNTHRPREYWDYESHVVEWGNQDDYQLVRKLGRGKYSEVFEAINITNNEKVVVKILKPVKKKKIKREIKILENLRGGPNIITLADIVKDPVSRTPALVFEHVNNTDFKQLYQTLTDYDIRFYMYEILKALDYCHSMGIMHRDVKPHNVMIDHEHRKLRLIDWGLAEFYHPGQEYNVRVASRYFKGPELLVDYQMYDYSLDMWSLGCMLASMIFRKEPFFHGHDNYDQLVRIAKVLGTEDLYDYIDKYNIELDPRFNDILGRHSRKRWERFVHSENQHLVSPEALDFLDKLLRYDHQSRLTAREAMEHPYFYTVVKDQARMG
T1 sequence (P67870 2-215 partner): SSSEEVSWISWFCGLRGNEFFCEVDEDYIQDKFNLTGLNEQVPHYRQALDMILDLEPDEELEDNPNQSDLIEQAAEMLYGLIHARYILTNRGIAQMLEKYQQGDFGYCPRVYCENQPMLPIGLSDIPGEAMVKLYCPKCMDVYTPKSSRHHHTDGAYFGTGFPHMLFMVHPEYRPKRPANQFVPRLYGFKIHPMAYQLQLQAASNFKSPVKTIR

As a reminder, the Ki is the equilibrium dissociation constant of an inhibitor or competing ligand from its target. As to `COc1ccc(/N=C/c2c(O)ccc3c2oc2cc(Cl)c(O)c(Cl)c23)cc1` [D11, 1,3-dichloro-6-[(E)-((4-methoxyphenyl)imino)methyl]dibenzo(b,d)furan-2,7-diol], the Ki came to 7.7 nM.
